Measured values as given in US10933052B2, “Compositions and methods for the treatment of eye disorders” (Cellix Bio Private Limited, priority 2017, dated 2021).

Test: Ocular pharmacokinetic study of CLX-156 formulation, topical administration in each eye
Type: in vivo, male New Zealand white rabbits
Settings: rabbit, topical 50 μL in each eye
Protocol: A pharmacokinetics study was conducted on male New Zealand white rabbits to evaluate the ocular pharmacokinetics of CLX-156 (Pilocarpine-(R)-Lipoate) formulation. Animals were topically administered with 50 μL of CLX-156 in each eye, and the aqueous humour and blood samples were collected followed by sacrifice of the animals for collection of lens, cornea and iris region at a pre-determined time.
The aqueous humour and tissue concentration of Pilocarpine and (R)-Lipoic acid were measured at 0.5 h, 1 h, 2 h, 4 h and 8 h in 3 animals/time point/group (as provided in Table 2 and Table 3 hereinbelow). Further, (R)-Lipoic acid concentration was measured in the lens region, and Pilocarpine concentration was measured in iris region of each of the treated animals (as provided in Table 2 and Table 3). All the samples were analyzed using LCMS-MS by a fit for purpose method.

[1] = analyte (R)-Lipoic acid, aqueous humour
[2] = analyte (R)-Lipoic acid, lens region
[3] = analyte Pilocarpine, aqueous humour
[4] = analyte Pilocarpine, iris region

Substance: 5-(((3R,4S)-4-ethyl-5-oxotetrahydro furan-3-yl)methyl)-1-methyl-1H-imidazol-1-ium (R)-5-(1,2-dithiolan-3-yl)pentanoate [CLX-156]
- AUClast, (R)-Lipoic acid in aqueous humour [1]: 17.271 µg·h/mL
- Cmax, concentration of (R)-Lipoic acid in aqueous humour [1]: 21.067 µg/mL
- Tmax, (R)-Lipoic acid in aqueous humour [1]: 30 min
- AUClast, (R)-Lipoic acid in lens region [2]: 0.364 µg·h/g
- Tmax, (R)-Lipoic acid in lens region [2]: 30 min
- AUClast, Pilocarpine in aqueous humour [3]: 6.359 µg·h/mL
- Cmax, concentration of Pilocarpine in aqueous humour [3]: 6.48 µg/mL
- Tmax, Pilocarpine in aqueous humour [3]: 30 min
- time up to which pilocarpine was detectable in aqueous humour [3]: up to 4 h
- AUClast, Pilocarpine in iris region [4]: 1.491 µg·h/g
- Tmax, Pilocarpine in iris region [4]: 30 min
- time up to which pilocarpine was detectable in iris region [4]: up to 2 h
